Patent US20080139558A1, “QUINOLONES USEFUL AS INDUCIBLE NITRIC OXIDE SYNTHASE INHIBITORS” (KALYPSYS, INC., priority 2006, published 2008)

Molecular target: T1, human iNOS (Homo sapiens, UniProt P35228)
T1 construct: expressed in transfected cells; host or cells: HEK293
Experiment: DAN assay of nitric oxide production (hiNOS)
Format: cell-based
Conditions: enzyme expressed in HEK293 cells transiently transfected with human iNOS
Outline: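 Human iNOS transiently expressed in HEK293 cells; NO production quantified as nitrite via 2,3-diaminonaphthalene reaction forming fluorescent naphthotriazole.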

T1 sequence (P35228 whole entry): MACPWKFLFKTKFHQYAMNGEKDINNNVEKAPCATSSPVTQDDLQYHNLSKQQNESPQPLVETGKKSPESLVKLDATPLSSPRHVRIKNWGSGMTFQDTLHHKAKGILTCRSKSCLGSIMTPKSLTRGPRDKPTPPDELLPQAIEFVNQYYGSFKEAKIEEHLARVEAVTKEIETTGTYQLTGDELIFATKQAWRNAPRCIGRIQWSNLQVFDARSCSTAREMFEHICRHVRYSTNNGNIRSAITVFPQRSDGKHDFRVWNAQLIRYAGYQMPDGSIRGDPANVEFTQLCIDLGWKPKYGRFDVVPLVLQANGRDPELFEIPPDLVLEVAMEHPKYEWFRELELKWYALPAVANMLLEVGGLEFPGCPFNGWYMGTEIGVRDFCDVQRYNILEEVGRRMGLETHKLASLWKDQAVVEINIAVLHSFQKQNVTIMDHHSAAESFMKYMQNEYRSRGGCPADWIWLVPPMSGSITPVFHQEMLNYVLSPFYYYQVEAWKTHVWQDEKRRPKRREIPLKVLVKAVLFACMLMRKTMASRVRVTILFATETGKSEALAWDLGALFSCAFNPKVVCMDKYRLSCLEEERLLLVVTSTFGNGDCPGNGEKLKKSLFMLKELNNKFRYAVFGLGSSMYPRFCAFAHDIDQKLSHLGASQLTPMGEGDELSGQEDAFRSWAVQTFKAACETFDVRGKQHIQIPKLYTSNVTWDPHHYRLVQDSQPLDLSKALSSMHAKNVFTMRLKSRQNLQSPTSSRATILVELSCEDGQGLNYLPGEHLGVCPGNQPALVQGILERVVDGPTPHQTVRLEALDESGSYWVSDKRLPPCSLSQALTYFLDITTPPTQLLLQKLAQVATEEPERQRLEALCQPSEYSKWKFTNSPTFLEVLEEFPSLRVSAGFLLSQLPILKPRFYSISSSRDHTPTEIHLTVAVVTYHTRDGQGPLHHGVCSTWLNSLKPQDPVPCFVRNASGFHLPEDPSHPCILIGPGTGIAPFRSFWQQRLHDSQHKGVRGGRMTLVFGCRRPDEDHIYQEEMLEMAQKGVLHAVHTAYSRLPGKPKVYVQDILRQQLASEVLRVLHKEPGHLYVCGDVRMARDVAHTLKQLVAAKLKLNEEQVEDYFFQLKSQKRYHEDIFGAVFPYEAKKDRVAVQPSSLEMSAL

Compound	EC50 [µM]
O=c1cc(Cn2c(-c3ccncc3Cl)nc3ccccc32)c2ccc(F)c(F)c2[nH]1 [Example 248, 4-((2-(3-Chloropyridin-4-yl)-1H-benzo[d]imidazol-1-yl)methyl)-7,8-difluoroquinolin-2(1H)-one]	≤ 5
O=c1cc(Cn2c(Cn3ccnc3)nc3ccccc32)c2ccc(F)c(F)c2[nH]1 [Example 251, 4-((2-((1H-Imidazol-1-yl)methyl)-1H-benzo[d]imidazol-1-yl)methyl)-7,8-difluoroquinolin-2(1H)-one]	> 5
O=C1CCN(c2ccccc2)N1Cc1cc(=O)[nH]c2c(F)c(F)ccc12 [Example 252, 7,8-Difluoro-4-((5-oxo-2-phenylpyrazolidin-1-yl)methyl)quinolin-2(1H)-one]	≤ 5
Cc1ncsc1C(=O)N(c1cccc(Cl)c1)C(F)c1cc(=O)[nH]c2c(F)cccc12 (stereo not drawn) [Example 253, N-(3-Chlorophenyl)-N-(fluoro(8-fluoro-2-oxo-1,2-dihydroquinolin-4-yl)methyl)-4-methylthiazole-5-carboxamide]	≤ 5
CC(C)c1cn(Cc2cc(=O)[nH]c3c(F)c(F)ccc23)c(-c2ccccc2)n1 [Example 254, 7,8-Difluoro-4-((4-isopropyl-2-phenyl-1H-imidazol-1-yl)methyl)quinolin-2(1H)-one]	≤ 5
CC(C)c1ncc(-c2ccccc2)n1Cc1cc(=O)[nH]c2c(F)c(F)ccc12 [Example 255, 7,8-Difluoro-4-((2-isopropyl-5-phenyl-1H-imidazol-1-yl)methyl)quinolin-2(1H)-one]	> 5
Cc1nc(C)n(Cc2cc(=O)[nH]c3c(F)c(F)ccc23)c1C [Example 256, 7,8-Difluoro-4((2,4,5-trimethyl-1H-imidazol-1-yl)methyl)quinolin-2(1H)-one]	> 5
Cc1nc(-c2cccc(Cl)c2)n(Cc2cc(=O)[nH]c3c(F)c(F)ccc23)c1C [Example 257, 4-((2-(3-Chlorophenyl)-4,5-dimethyl-1H-imidazol-1-yl)methyl)-7,8-difluoroquinolin-2(1H)-one]	≤ 5
Cc1c(-c2ccccc2)nc(C(C)C)n1Cc1cc(=O)[nH]c2c(F)c(F)ccc12 [Example 258, 7,8-Difluoro-4-((2-isopropyl-5-methyl-4-phenyl-1H-imidazol-1-yul)methyl)quinolin-2(1H)-one]	> 5
O=c1cc(Cn2cnc(-c3ccccc3)c2)c2ccc(F)c(F)c2[nH]1 [Example 260, 7,8-Difluoro-4-((4-phenyl-1H-imidazol-1-yl)methyl)quinolin-2(1H)-one]	> 5
O=c1cc(CN(c2cccc(Cl)c2)S(=O)(=O)c2cccnc2)c2ccc(F)c(F)c2[nH]1 [Example 261, N-(3-chlorophenyl)-N-((7,8-difluoro-2-oxo-1,2-dihydroquinolin-4-yl)methyl)pyridine-3-sulfonamide]	≤ 5
COc1cccc(N(Cc2cc(=O)[nH]c3c(F)cccc23)C(=O)c2scnc2C)c1 [Example 262, N-((8-Fluoro-2-oxo-1,2-dihydroquinolin-4-yl)methyl)-N-(3-methoxyphenyl)-4-methylthiazole-5-carboxamide]	≤ 5
Cc1ncsc1C(=O)N(Cc1cc(=O)[nH]c2c(F)c(F)ccc12)c1cccnc1 [Example 263, N-((7,8-Difluoro-2-oxo-1,2-dihydroquinolin-4-yl)methyl)-4-methyl-N-(pyridin-3-yl)thiazole-5-carboxamide]	≤ 5
Cc1ncsc1C(=O)N(Cc1cc(=O)[nH]c2c(F)c(F)ccc12)c1ccccn1 [Example 264, N-((7,8-Difluoro-2-oxo-1,2-dihydroquinolin-4-yl)methyl)-4-methyl-N-(pyridin-2-yl)thiazole-5-carboxamide]	> 5
Cc1nc(S(=O)(=O)N(Cc2cc(=O)[nH]c3c(F)c(F)ccc23)c2cccc(Cl)c2)cn1C [Example 265, N-(3-Chlorophenyl)-N-((7,8-difluoro-2-oxo-1,2-dihydroquinolin-4-yl)methyl)-1,2-dimethyl-1H-imidazole-4-sulfonamide]	≤ 5
